Earlier results as cited in patent US20240065975A1, “OTF COMPOUND CONNECTED BY SEWING” (LTS LOHMANN THERAPIE-SYSTEME AG, priority 2021, published 2024).

Details: compared with (R)-ketamine

## CNC1(c2ccccc2Cl)CCCCC1=O (racemic) [(S)-ketamine, (S)-(±)-2-(2-chlorophenyl)-2-(methylamino)cyclohexan-1-one]
  analgesic and anaesthetic potency relative to the (R) form: approximately three times higher
